Reference: PubChem BioAssay AID330 (DTP/NCI, 2004)
Values joined by “and” are separate entries in the source; they are usually repeats but may differ in a detail not shown here. Identical values can stand only once. Toxic doses and inconclusive results are not listed.

Test system: P388 leukemia ip, CD2F1 mice, survival T/C
Assay: NCI In Vivo Anticancer Drug Screen. Data for tumor model P388 Leukemia (intraperitoneal) in CD2F1 (CDF1) mice
Details: endpoint: median survival time, higher = longer survival
Procedure, shortened: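 Mice carrying the transplanted tumor received test compound or vehicle. Survival was recorded in each group, and the value is the treated-group measurement divided by that of the vehicle-treated control group.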

[1] = dose: 200.0 mg/kg/injection, schedule: Q01DX005 (ip), vehicle: saline with Tween-80
[2] = dose: 50.0 mg/kg/injection, schedule: Q01DX009 (ip), vehicle: saline with Tween-80
[3] = dose: 100.0 mg/kg/injection, schedule: Q01DX009 (ip), vehicle: saline with Tween-80
[4] = dose: 12.5 mg/kg/injection, schedule: Q01DX005 (ip), vehicle: Klucel (hydroxypropylcellulose) (HPC)
[5] = dose: 25.0 mg/kg/injection, schedule: Q01DX005 (ip), vehicle: Klucel (hydroxypropylcellulose) (HPC)
[6] = dose: 50.0 mg/kg/injection, schedule: Q01DX005 (ip), vehicle: Klucel (hydroxypropylcellulose) (HPC)
[7] = dose: 50.0 mg/kg/injection, schedule: Q01DX005 (ip), vehicle: saline with Tween-80
[8] = dose: 100.0 mg/kg/injection, schedule: Q01DX005 (ip), vehicle: saline with Tween-80
[9] = dose: 100.0 mg/kg/injection, schedule: Q01DX005 (ip), vehicle: Klucel (hydroxypropylcellulose) (HPC)
[10] = dose: 200.0 mg/kg/injection, schedule: Q01DX005 (ip), vehicle: Klucel (hydroxypropylcellulose) (HPC)
[11] = dose: 60.0 mg/kg/injection, schedule: Q01DX005 (ip), vehicle: Klucel (hydroxypropylcellulose) (HPC)
[12] = dose: 120.0 mg/kg/injection, schedule: Q01DX005 (ip), vehicle: Klucel (hydroxypropylcellulose) (HPC)
[13] = dose: 240.0 mg/kg/injection, schedule: Q01DX005 (ip), vehicle: Klucel (hydroxypropylcellulose) (HPC)
[14] = dose: 60.0 mg/kg/injection, schedule: Q01DX005 (ip), vehicle: saline with Tween-80
[15] = dose: 120.0 mg/kg/injection, schedule: Q01DX005 (ip), vehicle: saline with Tween-80
[16] = dose: 240.0 mg/kg/injection, schedule: Q01DX005 (ip), vehicle: saline with Tween-80
[17] = dose: 12.5 mg/kg/injection, schedule: Q01DX005 (ip), vehicle: saline with Tween-80
[18] = dose: 25.0 mg/kg/injection, schedule: Q01DX005 (ip), vehicle: saline with Tween-80

COc1cc(Br)c(CC(NC(=O)c2ccccc2)c2ccc(OC)c(OC)c2OC)cc1OC (stereo not drawn)
T/C [1]: 91 % of control

CC1COC2(CCC(=CC(=O)O)CC2)O1 (stereo not drawn)
T/C (dose: 100.0 mg/kg/injection, schedule: Q01DX001 (ip), vehicle: Klucel (hydroxypropylcellulose) (HPC)): 100 % of control
T/C (dose: 200.0 mg/kg/injection, schedule: Q01DX001 (ip), vehicle: Klucel (hydroxypropylcellulose) (HPC)): 102 % of control
T/C (dose: 400.0 mg/kg/injection, schedule: Q01DX001 (ip), vehicle: Klucel (hydroxypropylcellulose) (HPC)): 97 % of control

CCOC(=O)c1sc(N)nc1C
T/C (dose: 9.0 mg/kg/injection, schedule: Q01DX009 (ip), vehicle: saline with Tween-80): 111 % of control
T/C (dose: 18.0 mg/kg/injection, schedule: Q01DX009 (ip), vehicle: saline with Tween-80): 90 % of control
T/C (dose: 25.0 mg/kg/injection, schedule: Q01DX009 (ip), vehicle: saline with Tween-80): 105 % of control
T/C (dose: 36.0 mg/kg/injection, schedule: Q01DX009 (ip), vehicle: saline with Tween-80): 99 % of control
T/C [2]: 106 % of control and 112 % of control and 113 % of control
T/C [3]: 108 % of control and 115 % of control and 97 % of control
T/C (dose: 200.0 mg/kg/injection, schedule: Q01DX009 (ip), vehicle: saline with Tween-80): 102 % of control and 112 % of control

O=C(c1ccccc1Cl)n1c(=O)oc2ccccc21
T/C (dose: 50.0 mg/kg/injection, schedule: Q04DX002 (ip), vehicle: Klucel (hydroxypropylcellulose) (HPC)): 99 % of control
T/C (dose: 100.0 mg/kg/injection, schedule: Q04DX002 (ip), vehicle: Klucel (hydroxypropylcellulose) (HPC)): 90 % of control
T/C (dose: 200.0 mg/kg/injection, schedule: Q04DX002 (ip), vehicle: Klucel (hydroxypropylcellulose) (HPC)): 90 % of control

Cc1ccc(S(=O)(=O)OI(C#CC(C)(C)C)c2ccccc2)cc1
T/C [4]: 102 % of control
T/C [5]: 102 % of control
T/C [6]: 101 % of control and 117 % of control

CC1C(O)CCC2=CC(=O)C3(C4(CO)CO4)OC3C21C (stereo not drawn)
T/C (dose: 15.0 mg/kg/injection, schedule: Q01DX005 (ip), vehicle: saline): 102 % of control
T/C (dose: 30.0 mg/kg/injection, schedule: Q01DX005 (ip), vehicle: saline): 91 % of control
T/C (dose: 60.0 mg/kg/injection, schedule: Q01DX005 (ip), vehicle: saline): 108 % of control
T/C (dose: 62.5 mg/kg/injection, schedule: Q01DX005 (ip), vehicle: saline): 103 % of control
T/C (dose: 120.0 mg/kg/injection, schedule: Q01DX005 (ip), vehicle: saline): 98 % of control
T/C (dose: 125.0 mg/kg/injection, schedule: Q01DX005 (ip), vehicle: saline): 110 % of control
T/C (dose: 250.0 mg/kg/injection, schedule: Q01DX005 (ip), vehicle: saline): 114 % of control

CCOc1cc2cc(CCO)c(C)cc2cn1
T/C (dose: 6.25 mg/kg/injection, schedule: Q01DX009 (ip), vehicle: distilled water + Tween-80): 110 % of control
T/C (dose: 12.5 mg/kg/injection, schedule: Q01DX009 (ip), vehicle: distilled water + Tween-80): 108 % of control
T/C (dose: 25.0 mg/kg/injection, schedule: Q01DX009 (ip), vehicle: distilled water + Tween-80): 94 % of control
T/C (dose: 50.0 mg/kg/injection, schedule: Q01DX009 (ip), vehicle: distilled water + Tween-80): 94 % of control
T/C (dose: 100.0 mg/kg/injection, schedule: Q01DX009 (ip), vehicle: distilled water + Tween-80): 100 % of control and 90 % of control
T/C (dose: 200.0 mg/kg/injection, schedule: Q01DX009 (ip), vehicle: distilled water + Tween-80): 95 % of control
T/C (dose: 400.0 mg/kg/injection, schedule: Q01DX009 (ip), vehicle: distilled water + Tween-80): 104 % of control

CN(/N=C/c1ccccc1)C(N)=Nc1ccccc1
T/C [7]: 119 % of control
T/C [8]: 107 % of control
T/C [1]: 104 % of control

CCOC(=O)COc1cc2c(cc1Cc1ccc3c(c1)OCO3)OCO2
T/C [4]: 96 % of control
T/C [5]: 96 % of control
T/C [6]: 101 % of control
T/C [9]: 98 % of control
T/C [10]: 99 % of control

N=C(N)c1ccc(OCCCCOc2ccc(N)cc2)cc1
T/C [11]: 97 % of control
T/C [12]: 101 % of control

COc1ccc(C2OC3=Nc4ccccc4NC3C2=O)cc1OC (stereo not drawn)
T/C [11]: 107 % of control
T/C [12]: 105 % of control
T/C [13]: 100 % of control

CN1CCc2cc(O)c(O)cc2C1Cc1ccc(O)c(O)c1 (stereo not drawn)
T/C [2]: 100 % of control
T/C [3]: 96 % of control

CC(C)(CCC(C)(C)NCCCN)NCCCN
T/C (dose: 3.13 mg/kg/injection, schedule: Q01DX009 (ip), vehicle: water): 115 % of control
T/C (dose: 6.25 mg/kg/injection, schedule: Q01DX009 (ip), vehicle: water): 112 % of control
T/C (dose: 12.5 mg/kg/injection, schedule: Q01DX009 (ip), vehicle: water): 102 % of control
T/C (dose: 25.0 mg/kg/injection, schedule: Q01DX009 (ip), vehicle: water): 103 % of control
T/C (dose: 50.0 mg/kg/injection, schedule: Q01DX009 (ip), vehicle: water): 97 % of control

COc1ccc(C(=O)Cc2nc3nnc(NC(=O)Nc4ccc(Cl)cc4)n3[nH]c2=O)cc1
T/C [14]: 99 % of control
T/C [15]: 99 % of control
T/C [16]: 100 % of control

CCOC(=O)c1cn2ccccc2c(C(=O)c2cccnc2)c1=N
T/C (dose: 100.0 mg/kg/injection, schedule: Q04DX003 (ip), vehicle: saline): 91 % of control
T/C (dose: 200.0 mg/kg/injection, schedule: Q04DX003 (ip), vehicle: saline): 96 % of control
T/C (dose: 400.0 mg/kg/injection, schedule: Q04DX003 (ip), vehicle: saline): 96 % of control

CN=C(NC)c1ccc(NC(=O)Nc2cccc(NC(=O)Nc3ccc(C(=NC)NC)cc3)c2)cc1
T/C [17]: 160 % of control and 177 % of control
T/C [18]: 195 % of control and 206 % of control

CCCCOc1ccc2nc(C)cc(N/N=C/c3ccc(OC)c4ccccc34)c2c1
T/C [4]: 94 % of control
T/C [5]: 94 % of control
T/C [6]: 89 % of control and 97 % of control

Nc1cccc(-c2nn[nH]n2)c1
T/C [7]: 98 % of control
T/C [8]: 102 % of control
T/C [1]: 88 % of control

Cc1cccc(=N)n1CCC(=O)O
T/C (dose: 100.0 mg/kg/injection, schedule: Q01DX009 (ip), vehicle: saline): 90 % of control
T/C (dose: 200.0 mg/kg/injection, schedule: Q01DX009 (ip), vehicle: saline): 100 % of control

O=c1[nH]cnc2c1ccn2C1OC(CO)C(O)C1O (stereo not drawn)
T/C (dose: 3.0 mg/kg/injection, schedule: Q01DX009 (ip), vehicle: saline with Tween-80): 100 % of control
T/C (dose: 6.0 mg/kg/injection, schedule: Q01DX009 (ip), vehicle: saline with Tween-80): 100 % of control
T/C (dose: 12.0 mg/kg/injection, schedule: Q01DX009 (ip), vehicle: saline with Tween-80): 104 % of control

Cc1ccc(S(=O)(=O)Sc2nnnn2C)cc1
T/C (dose: 50.0 mg/kg/injection, schedule: Q01DX009 (ip), vehicle: Klucel (hydroxypropylcellulose) (HPC)): 106 % of control
T/C (dose: 100.0 mg/kg/injection, schedule: Q01DX009 (ip), vehicle: Klucel (hydroxypropylcellulose) (HPC)): 97 % of control

COc1ccc2c(c1)CC[C@@H]1[C@@H]2CC[C@]2(C)C(=O)/C(=C/C=C/N(C)C)C[C@@H]12
T/C [17]: 90 % of control
T/C [18]: 91 % of control
T/C [7]: 87 % of control and 89 % of control

O=C(COCC(=O)N/N=C/c1ccc(Cl)cc1)N/N=C/c1ccc(Cl)cc1
T/C (dose: 6.25 mg/kg/injection, schedule: Q01DX005 (ip), vehicle: saline with Tween-80): 95 % of control
T/C [17]: 95 % of control
T/C [1]: 95 % of control

Cc1cc(=O)c2cc3c(cc2[nH]1)OCO3
T/C [6]: 106 % of control
T/C [9]: 100 % of control
T/C [10]: 100 % of control

CCCCCCOCC(=O)O
T/C [2]: 102 % of control
T/C [3]: 91 % of control

O=C1c2ccccc2C(=O)N1CN(CS(=O)(=O)c1ccccc1)c1ccccc1
T/C [11]: 98 % of control
T/C [12]: 88 % of control
T/C [13]: 86 % of control

Nc1ccc(S(=O)(=O)Nc2c(N)nc(SCC(=O)O)[nH]c2=O)cc1
T/C [11]: 92 % of control
T/C [12]: 96 % of control
T/C [13]: 92 % of control

CN(C)c1ccc(/C=N/NC(=O)c2ccccc2N)cc1
T/C [14]: 103 % of control
T/C [15]: 100 % of control
T/C [16]: 98 % of control

O=C(CCl)NN=C1C2CC3CC(C2)CC1C3
T/C [3]: 113 % of control
